Measured values as given in PubChem BioAssay (NCI).
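Growth conditions: 96-well plates. Treatment: test compound, 48 hours, 5 concentrations. Analysis: linear interpolation between bracketing concentrations; unreached endpoints set to highest concentration. The concentration for full growth arrest is given as TGI.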

Tests used:
Assay in all cases: NCI anticancer screen, dose series, 48 h
SK-MEL-5 melanoma = system: SK-MEL-5 melanoma
MDA-N = system: MDA-N
SK-OV-3 ovarian = system: SK-OV-3 ovarian
HS 578T breast = system: HS 578T breast
SNB-75 CNS = system: SNB-75 CNS
SF-295 CNS = system: SF-295 CNS
NCI-H226 lung = system: NCI-H226 lung
NCI-H23 lung = system: NCI-H23 lung
A549 NSCLC = system: A549 NSCLC
SF-539 CNS = system: SF-539 CNS

Row | Compound | TGI (SK-MEL-5 melanoma) | TGI (MDA-N) | TGI (SK-OV-3 ovarian) | TGI (HS 578T breast) | TGI (SNB-75 CNS) | TGI (SF-295 CNS) | TGI (NCI-H226 lung) | TGI (NCI-H23 lung) | TGI (A549 NSCLC) | TGI (SF-539 CNS)
1 | CN(C)c1cccc2c1C(=O)C=CC21c2ccc(N(C)C)c3c(N(C)C)ccc(c23)C(c2ccccc2)C1c1ccccc1 (stereo not given) | 27.5 µM | 37 µM | 31.8 µM | 45.3 µM | 30.9 µM | 32.7 µM | 39.2 µM | 75.3 µM | 71.7 µM | 26 µM
2 | Cc1c(-c2ccccc2)[nH]n(C2=NCCN2)c1=O | > 100 µM | > 100 µM | > 100 µM | > 100 µM | > 100 µM | > 100 µM | > 100 µM | > 100 µM | > 100 µM | > 100 µM
3 | COc1nc2c(N3CCCC3)nc(N3CCNCC3)nc2nc1NCc1ccccc1 | 2.88 µM | 2.45 µM | 4.68 µM | 5.14 µM | 4.19 µM | 3.35 µM | 7.1 µM | 5.88 µM | 5.34 µM | 3.21 µM
4 | O=C(CC(C(=O)c1ccco1)c1ccco1)c1ccco1 (stereo not given) | > 100 µM | > 100 µM | > 100 µM | > 100 µM | > 100 µM | > 100 µM | > 100 µM | > 100 µM | > 100 µM | > 100 µM
5 | CCNc1ncnc2sc(SCc3ccccc3)nc12 | > 100 µM | > 100 µM | > 100 µM | > 100 µM | > 100 µM | > 100 µM | > 100 µM | > 100 µM | > 100 µM | > 100 µM
6 | CC(C)/C(Cl)=N/OC(=O)Nc1ccc(OC(F)(F)F)cc1 | 21.3 µM | 26.2 µM | 31.9 µM | 43 µM | 29 µM | 33.1 µM | 23.5 µM | 30.9 µM | 34.8 µM | 31.3 µM
7 | Clc1ccc(/C(=C\c2ccccc2)Cn2ccnc2)cc1 | 25.6 µM | 39 µM | 36.3 µM | > 100 µM | 59.4 µM | 49.4 µM | 33.1 µM | > 100 µM | 49.4 µM | 31.5 µM
8 | CN(C)CCCNC(=O)c1c(O)c2ccccc2n(C)c1=O | > 100 µM | > 100 µM | > 100 µM | > 100 µM | > 100 µM | > 100 µM | > 100 µM | > 100 µM | > 100 µM | > 100 µM
9 | COc1ccc(NC(C)c2ccncc2)cc1 (stereo not given) | > 100 µM | > 100 µM | 65 µM | > 100 µM | > 100 µM | > 100 µM | > 100 µM | > 100 µM | > 100 µM | > 100 µM
10 | C[C@H]1[C@H](C)CC[C@]2(C(=O)OC3OC(CO)C(O)C(O)C3O)CC[C@]3(C)C(=CC[C@@H]4[C@@]5(C)C[C@H]6OC(=O)c7cc(O)c(O)c(O)c7-c7c(cc(O)c(O)c7O)C(=O)O[C@@H]6C(CO)(CO)[C@@H]5CC[C@]43C)[C@H]12 (stereo not given in full) | > 100 µM | 72.7 µM | > 100 µM | > 100 µM | > 100 µM | > 100 µM | > 100 µM | > 100 µM | > 100 µM | > 100 µM
11 | COC(=O)[C@H](Cc1ccccc1)NC(=O)N(CCC#N)CCN(C(=O)N[C@@H](Cc1ccccc1)C(=O)OC)c1ccccc1 | 46.2 µM | 33.8 µM | > 100 µM | > 100 µM | 45.3 µM | > 100 µM | 89 µM | 93.6 µM | > 100 µM | 41.1 µM
12 | CC(C)[Si](OC/C(=C/COC(C)(C)C)[C@H]1CC=C(C(=O)c2ccccc2N2CN(C)C(=O)N(C)C2)C1)(C(C)C)C(C)C | 23.1 µM | 4.62 µM | 31.2 µM | 13.2 µM | 28.7 µM | 28.9 µM | 28.9 µM | 30 µM | 23 µM | 17.8 µM
13 | O=C1C(C(O)(C(F)(F)F)C(F)(F)F)CCC1C(O)(C(F)(F)F)C(F)(F)F (stereo not given) | 16.2 µM | > 81.8 µM | > 100 µM | 51.9 µM | 7.61 µM | 21 µM | 4.44 µM | 6.75 µM | > 65.4 µM | > 43.5 µM
14 | COc1ccc2c(c1)c(=O)c1c(NCCNCCO)ccc3c(=O)n(CCN(C)C)c(=O)n2c31 | 0.598 µM | 0.279 µM | 2.71 µM | 0.581 µM | 0.503 µM | 1.84 µM | 0.912 µM | 0.271 µM | 3.17 µM | 0.612 µM
